Measurements from patent US9623031B2, “Compositions, methods and kits for treating cancer” (priority 2011, dated 2017).
“Also recorded” adds a separate entry of the source.

Columns and labels:
[1] = tested on: BCR-ABL^+LSC (Kit^+Sca1^+Lin^−GFP^+); experiment: Apoptosis of BCR-ABL+ LSCs treated ex vivo (annexin V, flow cytometry); assay type: cell-based, mouse; conditions: for apoptosis of Sca1+GFP+Kit+ BCR-ABL+LSC from spleen: 25-1000 nM, 36 h
Protocol: Apoptosis. Apoptosis of LSCs was performed using annexin V as described below in Supplementary Information and Methods.
Apoptosis. The LSCs were diluted in DMEM, resuspended using a 16-gauge needle, and collected by centrifugation. 1×10^5 cells were resuspended in 200 μl of binding buffer (0.1 M HEPES with 1.4 M NaCl, 25 mM CaCl2, pH 7.4). Annexin V FITC (BD Biosciences) was incubated with cells for 15 min on ice followed by flow cytometric analysis.
The ability of CyPGs derived from arachidonic acid (2 series PGs) to induce apoptosis was tested in cultures of LSCs from FV infected mice and in the murine CML model. […] 15d-PGJ2 is known as a PPAPγ agonist. […] In FIG. 7C Δ^12-PGJ3, 15d-PGJ2 or 9,10-dihydro-15d-PGJ2 are tested for their ability to induce apoptosis in a murine CML model. […] The cells were stained with annexin V-FITC and analyzed by flow cytometry. Representative of N=4. […] Inset: Effect of rosiglitazone on the apoptosis of LSC. Rosiglitazone (0.1-2.0 μM) was incubated with LSC in the culture media for 36 h as described earlier and the cells were subjected to annexin-V staining followed by flow cytometry. […] LSC were treated ex vivo with indicated concentrations of each compound for 36 h.
Following 36 h of incubation, apoptotic cells were quantified by annexin V staining. […] In a related study to address if Δ^12-PGJ3 treatment would cause any degranulation of granulocytes, a rat basophilic cell line ([…]) was treated with 100 nM Δ^12-PGJ3 and the degranulation was followed by quantitating the release of histamine and a second marker of degranulation, hexoseaminidase.
In this experiment, 500,000 BCR-ABL+ LSCs were plated in a 24-well plate followed and were treated with 25 nM PGD2Me or 100 nM ZK118182 (both are agonists of DP) for 24 h. GFP^+ cells were analyzed by flow cytometry. These agonists were purchased from Cayman Chemicals, MI.

[2] = tested on: murine erythroleukemia (MEL) cells; experiment: MEL cell apoptosis and viability (MTT, CCK-8); assay type: cell-based, mouse; conditions: anti-leukemic drugs 1 μM, nutlin 5 μM, 24 h, MTT/CCK-8
Protocol: Cell culture. Murine erythroleukemia (MEL) cells were cultured in DMEM with 10% FBS. In order to examine the production 3-series PGs, BALB/c-derived RAW264.7 macrophage-like cells (ATCC) were cultured in DMEM containing 5% FBS, 250 nM sodium selenite, and 50 μM EPA (as BSA conjugate) for 72 h followed by stimulation with E. coli endotoxin lipopolysaccharide (LPS; Serotype 0111B4; 50 ng/ml) for 30 min. The cells were cultured in fresh DMEM for an additional 24-144 h. Cells cultured with cell culture-grade fatty acid free BSA (Sigma Aldrich) served as a control. Culture media was withdrawn at various times and analyzed for 3-series PGs as described below. Total RNA was isolated from cells or tissues using Trizol reagent as per the instructions of the supplier (Invitrogen, Carlsbad, Calif.) and cDNA was prepared using a High Capacity cDNA Reverse Transcriptase kit (Applied Biosystems, Foster City, Calif.). Semiquantitative RT-PCR for p53 and β-actin was performed with primers as described in Supplementary Methods. Nuclear and cytoplasmic protein extracts of LSCs were prepared using standard methods previously described (Vunta H et al., J Biol Chem. 2007; 282:17964-17973).
Cell viability studies. MEL cells were cultured in DMEM containing 10% FBS and treated with various commonly used anti-leukemic drugs such as daunorubicin (DNR), mitoxantrone (MIT), and cytarabine (CYT) at a final concentration […] for 24 h. […] After 24 h of drug treatment, cell proliferation was measured by MTT assay with CCK-8 kit from Dojindo Molecular Technologies, Inc. (Gaithersburg, Md.). All viability values reported are relative to untreated cells (UT) that was designated to be 100%. Results represent the mean±SEM of three independent observations.
In order to address whether MEL cells are resistant in general to chemotherapy agents, we tested whether MEL cells can be killed by apoptosis when treated with standard anti-leukemia drugs. Treatment with various commonly used anti-leukemic drugs such as daunorubicin (DNR), mitoxantrone (MIT), and cytarabine (CYT) at a final concentration 1 μM for 24 h. […] After 24 h of drug treatment, cell proliferation was measured by MTT assay with CCK-8 kit from Dojindo Molecular Technologies, Inc. (Gaithersburg, Md.). […] The results represent the mean±SEM of three independent observations.

[3] = tested on: FV-LSCs (M34^+Kit^+Sca1^+); experiment: Apoptosis of FV-LSCs treated ex vivo (annexin V, flow cytometry); assay type: cell-based, mouse; conditions: 25 nM, 36 h; for apoptosis of FV-LSCs: annexin V
Protocol: On day 14 after infection, spleens were isolated and a single cell suspension of spleen cells was generated. The cells were filtered through a 70 μm sterile filter and flow-through cells were resuspended in RBC lysis buffer followed by centrifugation. Leukemia stem cells were isolated by FACS. Spleen cells were labeled with anti-Kit, Sca1 (BioLegend, San Diego, Calif.) and M34 antibodies. […] As indicated M34^+Kit^+Sca1^+ cells were cultured in Methocult media (Stem Cell Technologies Vancouver BC) M3334 supplemented with 200 ng/ml Sonic Hedgehog (Shh), 15 ng/ml bone morphogenetic protein-4 (BMP4) (both from R&D Systems Minneapolis, Minn.), and 50 ng/ml stem cell factor (SCF; Peprotech).
The cells were stained with annexin V-FITC and analyzed by flow cytometry. […] Means±s.e.m. *P<0.001 compared to vehicle (PBS). […] Inset: Effect of rosiglitazone on the apoptosis of LSC. Rosiglitazone (0.1-2.0 μM) was incubated with LSC in the culture media for 36 h as described earlier and the cells were subjected to annexin-V staining followed by flow cytometry. […] LSC were treated ex vivo with indicated concentrations of each compound for 36 h. Mean±s.e.m. shown *P<0.001.

p53 = p53 expression in FV-LSCs treated ex vivo (RT-PCR, nuclear extracts); assay type: cell-based, mouse
[4] = tested on: Friend virus (FV)-induced erythroleukemia; experiment: FV-induced erythroleukemia in FV-infected mice, intraperitoneal treatment; assay type: in vivo, mouse
Description: FV-induced erythroleukemia and production of FV leukemia stem cells (FV-LSCs): BALB/c mice were infected with FV as previously described (Subramanian A et al., J Virol. 2008; 82:382-393; Harandi O F et al., J Clin Invest. 2010; 120:4507-4519). On day 14 after infection, spleens were isolated and a single cell suspension of spleen cells was generated. The cells were filtered through a 70 μm sterile filter and flow-through cells were resuspended in RBC lysis buffer followed by centrifugation. Leukemia stem cells were isolated by FACS. Spleen cells were labeled with anti-Kit, Sca1 (BioLegend, San Diego, Calif.) and M34 antibodies. M34 is a monoclonal antibody that recognizes the envelope protein of SFFV (Chesebro B et al., Virology. 1981; 112:131-144) and was used as previously described (Subramanian A et al., J Virol. 2008; 82:382-393). As indicated M34^+Kit^+Sca1^+ cells were cultured in Methocult media (Stem Cell Technologies Vancouver BC) M3334 supplemented with 200 ng/ml Sonic Hedgehog (Shh), 15 ng/ml bone morphogenetic protein-4 (BMP4) (both from R&D Systems Minneapolis, Minn.), and 50 ng/ml stem cell factor (SCF; Peprotech). For CFU-FV assays, cells were plated in methylcellulose media containing fetal calf serum, but lacking added growth factors as previously described (Mager D L et al., Proc Natl Acad Sci USA. 1981; 78:1703-1707).
Complete blood counts of mice treated with Δ^12-PGJ3 (0.05 mg/kg) were examined. There is no difference in treated mice and untransplanted control mice in terms of white blood cell counts, red blood cell counts or platelet counts. Changes in hematological parameters in FV-infected mice upon treatment with CyPGs were examined. FV-infected Balb/c mice were treated with Δ^12-PGJ3 (0.05 mg/kg) intraperitoneally for 7 d following which the mice were sacrificed and hematological parameters were analyzed on an Advia blood analyzer. FV-infected Δ^12-PGJ3 treated mice were compared to infected vehicle controls. N=5 per group, all data are means±s.e.m. *P<0.05. 3% w/v hydroxypropyl-3-cyclodextrin was used as a vehicle in in vivo experiments. Spleen sizes of FV-infected mice that were treated with either vehicle, 9,10-dihydro-15d-PGJ2 (0.05 mg/kg), or 15d-PGJ2 (0.05 mg/kg) were examined; N=3 pre group. Hematological parameters of Balb/c uninfected, infected, and 15d-PGJ2 treated mice were examined. N=5 per group. All data were means±s.e.m. *P<0.05.
FV-LSC were targeted by 15d-PGJ2 in the spleen of FV-infected mice. FV-infected mice were treated with 15d-PGJ2 or 9,10-dihydro-15d-PGJ2 at 0.05 mg/kg for 7 d. The splenic LSC (M34^+Sca1^+Kit^+) cells were analyzed by flow cytometry on day 14 post infection. […] Uninfected and infected vehicle controls were used for comparison. N=3; *P<0.05. […] The colonies were counted 10-14 days after plating. N=3 mice per group, *p<0.05.

[5] = tested on: FV-LSCs transplanted into BALB/c-Stk^−/− mice
Protocol: Transplant of FV-LSCs into BALB/c-Stk^−/− mice: FV-LSCs were generated as described above. 2.5×10^5 FV-LSCs were transplanted into BALB/c-Stk^−/− mice by retro-orbital injection. Six weeks after transplant the mice were treated with CyPGs or vehicle control as indicated in the text.
Treatment of Mice with PGs: Mice with FV-induced erythroleukemia or MIGR-BCR-ABL induced CML were treated on the indicated days with CyPGs. Mice were treated with a daily intraperitoneal injection of Δ^12-PGJ3 (0.01-0.1 mg/kg), 15d-PGJ2 (0.1 mg/kg), or 9,10-dihydro-15d-PGJ2 (0.1 mg/kg) for 7 days. All three compounds were formulated with hydroxypropyl-β-cyclodextrin (30% w/v; Sigma; vehicle control).
Stk^−/− mice are resistant to Friend virus infection so the leukemia developed by the transplanted mice is result of the transplanted LSCs and not FV infection. […] LSCs sorted from the spleens of FV-infected mice were transplanted into Stk^−/− mice (on a Balb/c background). After 6 weeks such mice were treated daily for 1 week with vehicle (hydroxypropyl-β-cyclodextrin), 15d-PGJ2 (0.05 mg/kg), or 9,10-dihydro-15d-PGJ2 (0.05 mg/kg) by intraperitoneal injection. The mice were sacrificed 51 days post LSC transplantation for analysis. An analysis of spleens of mice comparing splenomegaly in vehicle, 15d-PGJ2, or 9,10-dihydro-15d-PGJ2 treated transplanted mice was performed. Spleen weight compared to control (untransplanted mice) after treatment and WBC counts in the peripheral blood of the mice after treatment were examined, and a flow cytometric analysis of the spleen of untransplanted and LSC transplanted mice after treatment was performed. All data were mean±s.e.m. *p<0.05 compared to control or 9,10-dihydro-15d-PGJ2 treated groups. N=5 per group.

LSCs = experiment: Apoptosis of LSCs as summarised in the discussion (model not specified or both models); assay type: cell-based, mouse; conditions: FV-induced leukemia and BCR-ABL+ retrovirus-based murine CML model

For CCCCC[C@H](O)/C=C/[C@H]1C(=O)C[C@H](O)[C@@H]1C/C=C\CCCC(=O)OC [PGD2Me, 9α,15S-dihydroxy-11-oxo-prosta-5Z,13E-dien-1-oic acid, methyl ester], the “apoptosis of BCR-ABL+ LSCs by synthetic DP agonists (GFP+ cells)” value ([1]; 25 nM PGD2Me or 100 nM ZK118182, 24 h) was “can induce apoptosis of LSCs”.
With Nc1ccn([C@@H]2O[C@H](CO)[C@@H](O)[C@@H]2O)c(=O)n1 [cytarabine] the “sensitivity of MEL cells to drugs” value [2] was “caused significant apoptosis; also recorded: exhibited sensitivity”.
O=C1c2c(O)ccc(O)c2C(=O)c2c(NCCNCCO)ccc(NCCNCCO)c21 [mitoxantrone] was tested, and the “sensitivity of MEL cells to drugs” value [2] was “caused significant apoptosis; also recorded: exhibited sensitivity”.
For CCCCC[C@H](O)/C=C/[C@H]1C(=O)C=C[C@@H]1C/C=C\CCCC(=O)O [PGJ2], the “apoptosis of FV-LSCs” value [3] was “largely ineffective”, the “p53 expression at transcript level” value (p53; 10 or 25 nM, 12 h) was “only a minor degree” and the “p53 expression after preincubation of compound with media” value (p53; preincubated at 37° C. for 42 h before adding LSCs) was “increased expression of p53”.
With CCCCC/C=C/C=C1/C(=O)C=C[C@@H]1C/C=C\CCCC(=O)O [15d-PGJ2, reference compound] the “apoptosis of Sca1+GFP+Kit+ BCR-ABL+LSC from spleen” value [1] was “active; also recorded: significantly increased their apoptosis”, the “apoptosis of FV-LSCs” value [3] was “able to induce apoptosis; also recorded: Responses similar to Δ^12-PGJ3” and the “LSCs (Sca1+Kit+M34+) in the spleen” value ([4]; 0.05 mg/kg i.p. 7 d, flow cytometry day 14 post infection) was “significant decrease in LSC numbers; also recorded: Identical results”. The “total leukocyte and reticulocyte counts” value ([4]; i.p. 7 days) was “decreased to normal levels”, the “Friend virus viral replication” value ([4]; mouse, in vivo) was “does not affect Friend virus viral replication” and the CFU-FV colony formation ([4]; spleen cells of treated mice plated without growth factors) was “significantly decreased the number of transformed leukemia cells”. The “hematocrit, WBC counts and reticulocyte counts” value ([5]; FV-induced leukemia, FIG. 3C) was “significantly decreased” and the “LSCs (M34+Sca1+Kit+) in the spleen” value ([5]; flow cytometry after 1 week i.p. treatment) was “eradication of FV LSCs in the spleen and resolution of the diseases”.
For CC/C=C\C/C=C/C=C1/C(=O)C=C[C@@H]1C/C=C\CCCC(=O)O [15d-PGJ3, reference compound], the “increase in apoptosis of FV-LSCs” value [3] was roughly 75% and the “targeting of LSCs for apoptosis” value (LSCs) was “targeted LSCs for apoptosis”.
With COc1ccc(C2=NC(c3ccc(Cl)cc3)C(c3ccc(Cl)cc3)N2C(=O)N2CCNC(=O)C2)c(OC(C)C)c1 (stereo not shown) [nutlin] the “sensitivity of MEL cells to drugs” value [2] was “not” and the “sensitivity of MEL cells to drugs” value ([2]; listed as Nutlin) was “lack of activation of p53 and apoptosis”.
CCCCC[C@H](O)C/C=C1/C(=O)C=C[C@@H]1C/C=C\CCCC(=O)O [Δ^12-PGJ2] was tested, and the “apoptosis of Sca1+GFP+Kit+ BCR-ABL+LSC from spleen” value [1] was “active” and the “apoptosis of FV-LSCs” value [3] was “able to induce apoptosis; also recorded: Responses similar to Δ^12-PGJ3”.
In the case of O=C(NC(NC(=S)Nc1ccc(F)c([N+](=O)[O-])c1)C(Cl)(Cl)Cl)C(c1ccccc1)c1ccccc1 (stereo not shown) [CGK-733], the “block of Δ^12-PGJ3-dependent p53 expression by ATM inhibitors” value (p53; preincubation, then Δ^12-PGJ3) is reported as “blocked the CyPG-dependent expression of p53”.
For CC/C=C\C[C@H](O)/C=C/[C@H]1C(=O)C=C[C@@H]1C/C=C\CCCC(=O)O [PGJ3, reference compound], the “increase in apoptosis of FV-LSCs” value [3] was 2 fold and the “targeting of LSCs for apoptosis” value (LSCs) was “ineffective”.
In the case of COc1cccc2c1C(=O)c1c(O)c3c(c(O)c1C2=O)C[C@@](O)(C(C)=O)C[C@@H]3O[C@H]1C[C@H](N)[C@H](O)[C@H](C)O1 [daunorubicin], the “sensitivity of MEL cells to drugs” value [2] is reported as “caused significant apoptosis; also recorded: exhibited sensitivity”.
For CS(=O)(=O)c1cc(F)cc2c3c(n(Cc4ccc(Cl)cc4)c12)[C@@H](CC(=O)O)CC3 [MK0824], the “inhibition of Δ^12-PGJ3-induced apoptosis by DP antagonist” value ([1]; antagonist 10 nM, 2 h pretreatment, then 25 nM Δ^12-PGJ3, 36 h) was “inhibited”.
